In one assay the test system is HepG2. The assay is described as follows: Antiproliferative activity against Homo sapiens (human) HepG2 cells assessed as growth inhibition after 48 hr by MTT assay. Conditions: HepG2, 48 h.
Assay [1] deals with HCT-116. Put plainly: Antiproliferative activity against Homo sapiens (human) HCT116 cells assessed as growth inhibition after 48 hr by MTT assay. Conditions: HCT-116, 48 h. On the technique in general: Tetrazolium dyes change colour on reduction, which living cells bring about.
The test system of a further assay is MCF7. The assay is described as follows: Antiproliferative activity against Homo sapiens (human) MCF7 cells assessed as growth inhibition after 48 hr by MTT assay. Conditions: MCF7, 48 h.
Assay [2] has as its system HCT-116. The assay is described as follows: Induction of apoptosis in Homo sapiens (human) HCT116 cells assessed as PARP cleavage at 0.5 to 8 uM by Western blot analysis. The format is functional, cell-based. (In western blotting, separated proteins are transferred to a membrane and probed.)
For assay [3], the system named is HCT-116. Put plainly: Induction of apoptosis in Homo sapiens (human) HCT116 cells assessed as necrotic cells at 8 uM after 24 hr by Annexin V-FITC/PI staining based flow cytometry (reference value: 0.60%). The format is functional. (A flow cytometer gives signals particle by particle.)
Assay [4] has as its system HCT-116. Put plainly: Induction of apoptosis in Homo sapiens (human) HCT116 cells assessed as late apoptotic cells at 8 uM after 24 hr by Annexin V-FITC/PI staining based flow cytometry (reference value: 2.87%). The format is functional.
For assay [5], the system named is HCT-116. Put plainly: Induction of apoptosis in Homo sapiens (human) HCT116 cells assessed as early apoptotic cells at 8 uM after 24 hr by Annexin V-FITC/PI staining based flow cytometry (reference value: 3.73%). It is filed as functional.
Assay [6] deals with HCT-116. The assay is described as follows: Induction of apoptosis in Homo sapiens (human) HCT116 cells assessed as viable cells at 8 uM after 24 hr by Annexin V-FITC/PI staining based flow cytometry (reference value: 92.80%). The format is functional. Conditions: HCT-116, 24 h, read-out: Activity.
The subject of assay [7] is HCT-116. Put plainly: Induction of apoptosis in Homo sapiens (human) HCT116 cells assessed as necrotic cells at 2 uM after 24 hr by Annexin V-FITC/PI staining based flow cytometry (reference value: 0.60%). The format is functional.
The subject of assay [8] is HCT-116. The assay is described as follows: Induction of apoptosis in Homo sapiens (human) HCT116 cells assessed as late apoptotic cells at 2 uM after 24 hr by Annexin V-FITC/PI staining based flow cytometry (reference value: 2.87%). The format is functional.
Assay [9] has as its system HCT-116. Put plainly: Induction of apoptosis in Homo sapiens (human) HCT116 cells assessed as early apoptotic cells at 2 uM after 24 hr by Annexin V-FITC/PI staining based flow cytometry (reference value: 3.73%). It is filed as functional.
Assay [10] has as its system HCT-116. The assay is described as follows: Induction of apoptosis in Homo sapiens (human) HCT116 cells assessed as viable cells at 2 uM after 24 hr by Annexin V-FITC/PI staining based flow cytometry (reference value: 92.80%). The settings on record: HCT-116, 24 h, read-out: Activity. The format is functional.
Assay [11] relates to HCT-116. The assay is described as follows: Induction of apoptosis in Homo sapiens (human) HCT116 cells assessed as necrotic cells at 0.5 uM after 24 hr by Annexin V-FITC/PI staining based flow cytometry (reference value: 0.60%). The format is functional.
Assay [12] has as its system HCT-116. Put plainly: Induction of apoptosis in Homo sapiens (human) HCT116 cells assessed as late apoptotic cells at 0.5 uM after 24 hr by Annexin V-FITC/PI staining based flow cytometry (reference value: 2.87%). It is filed as functional.
The test system of assay [13] is HCT-116. Put plainly: Induction of apoptosis in Homo sapiens (human) HCT116 cells assessed as early apoptotic cells at 0.5 uM after 24 hr by Annexin V-FITC/PI staining based flow cytometry (reference value: 3.73%). It is filed as functional.
Assay [14] relates to HCT-116. The assay is described as follows: Induction of apoptosis in Homo sapiens (human) HCT116 cells assessed as viable cells at 0.5 uM after 24 hr by Annexin V-FITC/PI staining based flow cytometry (reference value: 92.80%). It is filed as functional. The settings on record: HCT-116, 24 h, read-out: Activity.
The test system of assay [15] is HCT-116. Put plainly: Induction of apoptosis in Homo sapiens (human) HCT116 cells assessed as increase in cleaved caspase-3 level at 0.5 to 8 uM by Western blot analysis. The format is functional, cell-based.

The source made the active and inactive calls. The calls are words filed in the database; no cut-off is given here.

Usually IC50 stands for the concentration at which inhibition is half-maximal. Consider `COc1ccc(/C=N/NC(=O)CSc2nnc(-c3ccncc3)n2-c2ccccc2)cc1`, for which the IC50 in the assay on HepG2 came to 27.1 µM; with HCT-116 [1] it was 19.2 µM; in the assay on MCF7, 23.7 µM.

With `O=C(CSc1nnc(-c2ccncc2)n1-c1ccccc1)N/N=C/c1ccccc1`, the IC50 in the assay with HepG2 stood at 18.6 µM; in the assay on HCT-116 [1], 14.7 µM; in the assay on MCF7, 23.6 µM.

Regarding `O=[N+]([O-])c1ccccc1CSc1nnc(-c2ccncc2)n1-c1ccccc1`, the IC50 in the assay on HepG2, in the assay with HCT-116 [1] and with MCF7 was more than 50 µM throughout.

In the case of `O=C(CSc1nnc(-c2ccncc2)n1-c1ccccc1)N/N=C/c1cc(Br)ccc1O`, the outcome in the assay with HCT-116 [2] and with HCT-116 [15] was Active. The Activity is 3.04% in the assay with HCT-116 [3]; 38.01% with HCT-116 [4]; 27.35% in the assay on HCT-116 [5]; 2.44% with HCT-116 [7]; 12.47% with HCT-116 [8]; 18.85% with HCT-116 [9]. In addition, the figures for the Activity in the assay with HCT-116 [11], with HCT-116 [12] and in the assay with HCT-116 [13] were 0.72%, 3.27% and 5.99%, respectively. Besides, the viability at 8 µM in the assay with HCT-116 [6] worked out at 31.6%. Also, the viability at 2 µM with HCT-116 [10] is 86.2%. Further, the viability at 0.5 µM in the assay with HCT-116 [14] was 90%. For the same molecule, the IC50 in the assay with HepG2 worked out at 4.39 µM; in the assay on HCT-116 [1], 1.99 µM; with MCF7, 6.46 µM.

Regarding `O=C(CSc1nnc(-c2ccncc2)n1-c1ccccc1)N/N=C/c1ccc(Cl)cc1`, the IC50 in the assay with HepG2 is 11 µM; in the assay on HCT-116 [1], 5.74 µM; in the assay on MCF7 it was 9.93 µM.

In the case of `O=C(CSc1nnc(-c2ccncc2)n1-c1ccccc1)N/N=C/C=C/c1ccccc1`, the IC50 was found to be 8.28 µM in the assay on HepG2, 6.15 µM in the assay with HCT-116 [1] and 11.2 µM in the assay with MCF7.

In the case of `O=C(CSc1nnc(-c2ccncc2)n1-c1ccccc1)N/N=C/c1ccc(O)c(O)c1`, the IC50 was 16.9 µM in the assay on HepG2, 14.7 µM with HCT-116 [1] and 19.7 µM in the assay with MCF7.

With `O=C(CSc1nnc(-c2ccncc2)n1-c1ccccc1)N/N=C/c1ccc(F)cc1`, the values for the IC50 with HepG2, in the assay on HCT-116 [1] and in the assay with MCF7 were 9.33 µM, 7.04 µM and 12.3 µM, respectively.

Consider `O=C(CSc1nnc(-c2ccncc2)n1-c1ccccc1)N/N=C/c1cccc(F)c1`, for which the IC50 with HepG2 was 24.4 µM; in the assay on HCT-116 [1], more than 50 µM; with MCF7 it was more than 50 µM.

On to `O=C(CSc1nnc(-c2ccncc2)n1-c1ccccc1)N/N=C/c1ccc([N+](=O)[O-])cc1`, for which the values for the IC50 in the assay with HepG2, in the assay with HCT-116 [1] and with MCF7 were 15.9 µM, 10.2 µM and 15.3 µM, respectively.

As for `Fc1cccc(F)c1CSc1nnc(-c2ccncc2)n1-c1ccccc1`, the IC50 in the assay with HepG2 is more than 50 µM; in the assay on HCT-116 [1] it was 22.1 µM; in the assay with MCF7, more than 50 µM.

Consider `Fc1ccc(CSc2nnc(-c3ccncc3)n2-c2ccccc2)cc1`, for which the results for the IC50 with HepG2, with HCT-116 [1] and in the assay with MCF7 were 15.6 µM, 12.8 µM and 21.1 µM, respectively.

For `O=C(CSc1nnc(-c2ccncc2)n1-c1ccccc1)N/N=C/c1ccccc1O`, the IC50 worked out at 11.3 µM with HepG2, 7.06 µM in the assay on HCT-116 [1] and 10 µM with MCF7.

With `O=C(CSc1nnc(-c2ccncc2)n1-c1ccccc1)N/N=C/c1ccc(Br)cc1`, the IC50 turned out to be 5.99 µM with HepG2, 4.5 µM with HCT-116 [1] and 7.04 µM in the assay with MCF7.

As for `Brc1cccc(CSc2nnc(-c3ccncc3)n2-c2ccccc2)c1`, the result with HCT-116 [2] and with HCT-116 [15] was Active. Further, the Activity in the assay with HCT-116 [3] stood at 5.59%; with HCT-116 [4], 31.69%; in the assay with HCT-116 [5], 12.3%; in the assay on HCT-116 [7], 1.08%; in the assay on HCT-116 [8], 9.25%; in the assay on HCT-116 [9] it was 11.39%. In addition, the results for the Activity in the assay on HCT-116 [11], in the assay on HCT-116 [12] and in the assay with HCT-116 [13] were 0.28%, 3.24% and 8.24%, respectively. The viability at 8 µM with HCT-116 [6] turned out to be 50.4%. For the same molecule, the viability at 2 µM in the assay on HCT-116 [10] was 78.3%. The viability at 0.5 µM with HCT-116 [14] stood at 88.2%. Besides, the IC50 in the assay on HepG2 turned out to be 7.04 µM; in the assay on HCT-116 [1], 8.17 µM; with MCF7, 10 µM.

On to `Brc1ccccc1CSc1nnc(-c2ccncc2)n1-c1ccccc1`, for which the IC50 in the assay with HepG2 was found to be 17.1 µM; with HCT-116 [1], 20.2 µM; in the assay with MCF7, 16.1 µM.

Take `Clc1ccc(CSc2nnc(-c3ccncc3)n2-c2ccccc2)cc1`: the half-maximal inhibitory concentration (IC50) in the assay on HepG2 turned out to be 16.9 µM; in the assay on HCT-116 [1] it was 10.7 µM; in the assay with MCF7, 13.3 µM.

On to `c1ccc(CSc2nnc(-c3ccncc3)n2-c2ccccc2)cc1`, for which the IC50 with HepG2 came out at 12.9 µM; in the assay on HCT-116 [1], 16.9 µM; in the assay with MCF7, 22.4 µM.

For the molecule `Clc1ccccc1CSc1nnc(-c2ccncc2)n1-c1ccccc1`, the half-maximal inhibitory concentration (IC50) in the assay on HepG2 came out at 15.7 µM; in the assay with HCT-116 [1], 13.8 µM; in the assay with MCF7, 18.1 µM.

In the case of `Brc1ccc(CSc2nnc(-c3ccncc3)n2-c2ccccc2)cc1`, the IC50 in the assay on HepG2 is 12.9 µM; in the assay with HCT-116 [1], 11.1 µM; in the assay with MCF7 it was 12.6 µM.

With `O=[N+]([O-])c1cccc(CSc2nnc(-c3ccncc3)n2-c2ccccc2)c1`, the values for the IC50 in the assay on HepG2, in the assay on HCT-116 [1] and in the assay on MCF7 were 22 µM, 19.8 µM and 18.3 µM, respectively.

Turning to `O=C(CSc1nnc(-c2ccncc2)n1-c1ccccc1)N/N=C/c1cc(Br)cc(Br)c1O`, the values for the IC50 with HepG2, in the assay on HCT-116 [1] and in the assay on MCF7 were 7.59 µM, 4.5 µM and 8.44 µM, respectively.

On to `O=C(CSc1nnc(-c2ccncc2)n1-c1ccccc1)N/N=C/c1ccc(O)cc1`, for which the IC50 in the assay with HepG2, in the assay on HCT-116 [1] and with MCF7 was more than 50 µM in each case.

For `O=[N+]([O-])c1ccc(CSc2nnc(-c3ccncc3)n2-c2ccccc2)cc1`, the half-inhibitory concentration (IC50) is more than 50 µM in the assay on HepG2, 23.8 µM with HCT-116 [1] and 22.8 µM in the assay on MCF7.

As for `O=C(CSc1nnc(-c2ccncc2)n1-c1ccccc1)N/N=C/c1ccccc1F`, the figures for the IC50 in the assay on HepG2, in the assay on HCT-116 [1] and with MCF7 were 15.2 µM, 18 µM and 22.4 µM, respectively.

As to `Clc1cccc(CSc2nnc(-c3ccncc3)n2-c2ccccc2)c1`, the IC50 in the assay with HepG2 turned out to be 11.2 µM; in the assay with HCT-116 [1], 9.82 µM; with MCF7, 10.5 µM.

Regarding `Fc1ccccc1CSc1nnc(-c2ccncc2)n1-c1ccccc1`, the IC50 with HepG2 is more than 50 µM; with HCT-116 [1] it was 12 µM; in the assay on MCF7, more than 50 µM.

For `Fc1ccc(CSc2nnc(-c3ccncc3)n2-c2ccccc2)c(F)c1`, the IC50 in the assay with HepG2 was 10.2 µM; in the assay on HCT-116 [1] it was 11.4 µM; with MCF7, 14.1 µM.
